For series [1], the target named is E. coli BL21 overexpressing ClbP (Escherichia coli, UniProt Q0P7K6). In words: ClbP fluorescence activity assay (live cells). The class given is cell-based. As to the method: ClbP fluorescence activity assay (live cells). One 5 mL starter culture each E. coli BL21 pET-29b-ClbP and pET-29b-ClbP-S95A were inoculated from frozen stocks and grown overnight at 37° C. in LB medium supplemented with 50 μg/ml kanamycin (LB+kan). Overnight cultures were diluted 1:100 in fresh LB+kan and incubated at 37° C. to an OD600 of 0.3, at which point protein expression was induced by the addition of 500 μM isopropyl β-D-1-thiogalactopyranoside (IPTG) and cultures were moved to 15° C. for 4 hours. Cultures were then aliquoted in a black 384-well plate and the appropriate concentration of inhibitor was added as a DMSO stocks to a final concentration of 1% DMSO in a volume of 30 μL. Reactions were initiated by the addition of 10 μL of LB+kan+IPTG containing the fluorogenic substrate (final concentration=100 μM). Plastes were incubated at 25° C. with intermittent shaking while taking regular fluorescence measurements in a Bio-Tek Synergy HTX multimode plate reader with an excitation filter of 360/40 nm and an emission filter of 440/20 nm. “% activity” was determined based on the formula above using RFU measurements after 7 hours.

Series [2] has as its system Escherichia coli NC101. In words: Bacterial MIC assay (broth dilution). The series is classed as cell-based. As to conditions: Escherichia coli, NC101, 15 h, read-out: MICs by compound. On the procedure:
(§1) MICs of compounds against different bacterial species were determined using a modified version of a broth microdilution protocol which has been previously reported.^1 Briefly, cultures of each species indicated were inoculated from frozen stocks in deoxygenated Wilkins-Chalgren Anaerobic Medium (WCAM) inside of an anerobic chamber with an 92.5% N2/5% CO2/2.5% H2 atmosphere. Cultures were grown for 24-48 hours in a 37° C. incubator at which point an OD600-measurement was taken for each culture and was accordingly diluted in fresh WCAM to an equivalent of OD600=0.01. Diluted cultures were then distributed into the wells of a clear, flat-bottom 384-well plate and the compound of interest was added to a final DMSO concentration of 2% (or DMSO only for positive controls). […] mineral oil (Millipore Sigma) was deposited on top of the cultures and plates were covered with a clear adhesive plate seal. Plates were incubated at 37° C. for 16 hours, at which point the OD600 of all wells was recorded on a SpectraMax M2 plate reader (Molecular Devices).
In general terms: Broth dilution looks for growth in wells or tubes with falling amounts of substance.

Series [3] concerns Lactobacillus rhamnosus. Kind of series: Bacterial MIC assay (broth dilution). The class given is cell-based. As to conditions: Lacticaseibacillus rhamnosus, 15 h, read-out: MICs by compound.
Series [4] deals with a variety of bacterial strains from common gut phyla, including E. coli. Kind of series: Turbidity MIC assay, all strains together. As to conditions: Escherichia coli; all strains tested; upper limit tested 200 μM; read-out: MICs in liquid culture. The class given is cell-based.
Description: Compound 3 is an inhibitor of colibactin-associated genotoxicity. Since colibactin is produced in the context of the gut microbiota, it is essential to understand how 3 can affect other members of this community and whether it remains an effective inhibitor under these conditions. […] A turbidity assay was used to determine minimum inhibitory concentrations (MICs) in liquid culture of 1-4 against a variety of bacterial strains from common gut phyla, including E. coli (Table 3).
as §1

For series [5], the system named is HeLa cells. Kind of series: HeLa cell survival assay. The class given is cell-based, human. To be noted: all concentrations tested. On the procedure: HeLa cells were maintained as described in the General Tissue Culture Methods section. After trypsinization and counting, cells were distributed in to the wells of a 96-well plate with media containing the indicated concentration of the synthetic compound and 1% DMSO (or DMSO alone) at 5000 cells per well. After 20 hours, cell viability was determined using the CellTiter-Glo® 3D Cell Viability Assay kit (Promega) following the manufacturer's instructions and measuring luminescence on a Bio-Tek Synergy HTX™ multimode plate reader.

For series [6], the system named is purified plasmid DNA incubated with pks+ E. coli. Kind of series: Plasmid DNA crosslinking, denaturing gel electrophoresis. As to the method:
In addition to blocking the metabolic indicators of colibactin biosynthesis, it was also assessed whether 3 could inhibit the genotoxic effects of colibactin on human cells at physiologically accessible concentrations. A previously described infection assay with HeLa cells and pks+E. coli which was modified to include a 1-hour preincubation of the inhibitor with the E. coli as well as inclusion of the inhibitor in the infection medium was used. […] Treatment with 3 was able to completely block this effect at concentrations as low as 5 nM (FIG. 4). It was also confirmed that 3 is not cytotoxic to human cell lines at concentrations up to 10 μM. […] In order to directly assess the impacts of 3 on colibactin's DNA crosslinking activity, purified plasmid DNA was incubated with pks^+ E. coli, then subjected to gel electrophoresis under denaturing conditions.

For series [7], the system named is E. coli NC101 with mouse fecal community. Kind of series: ClbP inhibition in a microbial community. The series is classed as cell-based. As to conditions: E. coli NC101 plus C57BL/6J mouse fecal community, anaerobic, 1 μM 3, LC-MS. As to the method: ClbP inhibition in a microbial community. Mouse pellets were aseptically collected from cages and immediately stored at −80° C. until use. One 5 mL starter culture each of E. coli NC101 and E. coli NC101ΔclbP was started from frozen stocks in deoxygenated Brain-Heart Infusion media (BHI) inside an anaerobic chamber under a 95% N215% H2 atmosphere and incubated at 37° C. overnight. Mouse fecal pellets were defrosted in the anaerobic chamber and resuspended in BHI with 10 mL media/100 mg pellet mass. The fecal slurry was then centrifuged at 1000×g for 5 minutes to separate solids and the resulting supernatant was used as the media for all “+ community” conditions. Cultures were incubated in 500 μL volumes in triplicate in a deep-well plate under anaerobic conditions, with a 1:100 inoculum of the appropriate E. coli overnight for the “+E. coli” conditions. All samples contained a final concentration of 1% DMSO, with or without 1 μM inhibitor 3. After 20 hours at 37° C., samples were processed, and the concentration of N-myristoyl-D-asparagine quantified via LC-MS/MS as described above.

These results are taken from US12115176B2, “Methods and compositions relating to ClbP inhibition” (PRESIDENT AND FELLOWS OF HARVARD COLLEGE, priority 2021, dated 2024).

The IC50 is the midpoint of a concentration-inhibition curve.

“Also recorded” adds a separate entry of the source.

In the case of `CC1(C)OB([C@@H](CC(N)=O)NC(=O)CCCc2ccccc2)OC1(C)C` [Compound 3], in series [1], the IC50 was found to be 18.3 nM. For the same compound, the MIC in series [2], in series [3] and in series [4] was over 200 µM throughout. For the same compound, the “concentration without cytotoxicity to human cell lines” value in series [5] was over 10 µM. Further, the DNA crosslinking activity entry in series [6] is listed as “can suppress DNA crosslinking activity”. Moreover, the “production of prodrug scaffold in a complex microbial community” value in series [7] is “reduce the release of N-myristoyl-Asn; also recorded: fully suppressed production of the prodrug scaffold; also recorded: can selectively block colibactin biosynthesis; also recorded: can still effectively block colibactin production”.
